From patent US11985975B1, “N-[(2-{[(furan-ylcarbonyl)carbamothioyl]amino }phenyl)carbamothioyl]furan-2-carboxamide as an eco-friendly insecticidal agent against Spodoptera littoralis (boisd.)” (KING FAISAL UNIVERSITY, priority 2023, dated 2024) come the findings set out here.

≈ marks a conversion by molar mass, not a printed value. Read-outs that look alike come from different tables or passages of the source.

This test deals with Spodoptera littoralis larvae (second and fourth instars). The test is described as follows: Insecticidal bioassay screening (castor leaf dip), laboratory strain of cotton leafworm. The test is classed as in vivo. To be noted: for LC90 (mg/L) at 95%: after 72 hrs of treatment; for Toxicity index %: after 72 hrs, reference LC50/compound LC50 x 100; for LC50: Spodoptera littoralis, foliar. Here is the method:
Five concentrations (200, 100, 50, 25, 12.5 ppm) were designed for this synthetic compound and the reference Diflubenzuron compound as the dynamic ingredients based on ppm via diluting the commercial formulation.
In this experiment, castor leaves are immersed in each of the previously prepared concentrations of the components for 10 seconds and then left to dry for 60 minutes. Larvae of the second and fourth instars of each checked strain are prepared with treated leaves in gauze-covered glass containers for 72 hrs. An untreated control is made in which leaves are dipped in triton x-100 and distilled water only. Then the preserved leaves were removed & fresh, untreated leaves were provided for 72 hours. Three replicates (10 larvae each) were checked for each concentration. Daily inspection was carried out for all treatments and mortality percentages were recorded 3 days (72 hours) after treatment. The average mortality percentage was corrected employing Abbott's formula. The corrected mortality rate for each of the previously synthesized compounds is statistically calculated according to Finney (1970). Through this rate, the corresponding concentration test lines (LDP lines) are assessed.

Where [1] appears, read: 72 h, read-out: LC50 (mg/L) at 95%, 2nd instar larvae, after 72 hrs of treatment.
[2] abbreviates: 72 h, read-out: LC50 (mg/L) at 95%, 4th instar larvae, after 72 hrs of treatment.
The mark [3] stands for this setting: against Spodoptera littoralis under laboratory conditions (instar not stated).

`O=C(NC(=S)Nc1ccccc1NC(=S)NC(=O)c1ccco1)c1ccco1` [Compound 2, N-[(2-{[(furan-ylcarbonyl)carbamothioyl]amino}phenyl)carbamothioyl]furan-2-carboxamide]: the “LC90 (mg/L) at 95%” value (2nd instar larvae) was determined as 7450.5 mg/L (≈ 18000 µM) and the “LC90 (mg/L) at 95%” value (4th instar larvae) was determined as 1837.2 mg/L (≈ 4430 µM). The Toxicity index % is 10.6% (2nd instar larvae) and 14.7% (4th instar larvae). The LC50 under setting [1] stood at 424 mg/L (≈ 1020 µM), the LC50 under setting [2] worked out at 976 mg/L (≈ 2350 µM) and the LC50 under setting [3] stood at 424 mg/L (≈ 1020 µM). Also, the “Insecticidal activity (in words)” value (compared with reference insecticide Diflubenzuron) is listed as “active against Spodoptera littoralis”.
With `O=C(NC(=O)c1c(F)cccc1F)Nc1ccc(Cl)cc1` [Diflubenzuron, reference compound], the “LC90 (mg/L) at 95%” value runs as follows: (2nd instar larvae) 520.0 mg/L (≈ 1670 µM); (4th instar larvae) 1540.5 mg/L (≈ 4960 µM). For the same compound, the Toxicity index % was found to be 100% (2nd instar larvae) and 100% (4th instar larvae). Besides, the LC50 is, setting by setting: under setting [1], 45.2 mg/L (≈ 145 µM); under setting [2], 144 mg/L (≈ 464 µM); under setting [3], 45.2 mg/L (≈ 145 µM).
